± gives the standard deviation of the averaged measurements.
What was measured:
Experiment in all cases: drug sensitivity score (DSS); higher = more sensitive; extreme values may be limits of the assay
UT-SCC-24B = conditions: culture condition: plastic 2D (no matrix); treatment time: 3 days
How it was run: (§1)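 HPV-negative HNSCC cell lines were seeded at 500 cells/well in 384-well plates on plastic, on Matrigel- or Myogel-coated wells (500 µg/mL), or embedded in Matrigel or Myogel plus rat collagen I. Compounds were given at five 10-fold concentrations for 3 days, and viability was read by CellTiter-Glo 2.0 luminescence. Signals were normalised to vehicle (0.1% DMSO) and cell-killing control wells. Percent-inhibition dose–response curves were fitted in the FIMM pipeline to derive IC50, maximal inhibition and drug sensitivity score.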

UT-SCC-28 = conditions: treatment time: 3 days
How it was run: as §1

UT-SCC-40 = conditions: treatment time: 3 days
How it was run: as §1

UT-SCC-42A = conditions: treatment time: 3 days
How it was run: as §1

UT-SCC-42B = conditions: treatment time: 3 days
How it was run: as §1

UT-SCC-44 = conditions: treatment time: 3 days
How it was run: as §1

UT-SCC-73 = conditions: treatment time: 3 days
How it was run: as §1

UT-SCC-81 = conditions: treatment time: 3 days
How it was run: as §1

UT-SCC-8 = conditions: treatment time: 3 days
How it was run: as §1

[1] = culture condition: embedded in Matrigel
[2] = culture condition: embedded in Myogel + collagen I
[3] = culture condition: on top of Matrigel
[4] = culture condition: plastic 2D (no matrix)
[5] = culture condition: on top of Myogel

`Cn1cnc2c(F)c(Nc3ccc(Br)cc3F)c(C(=O)NOCCO)cc21` [Binimetinib] showed a drug sensitivity score (UT-SCC-24B) of 9.3 ± 1.2 DSS, a drug sensitivity score (UT-SCC-28; [1]) of 6.5 ± 2.1 DSS and a drug sensitivity score (UT-SCC-28; [2]) of 0 DSS. The drug sensitivity score (UT-SCC-28; [3]) was 4.43 ± 1.8 DSS, the drug sensitivity score (UT-SCC-28; [4]) was 2.87 ± 2.4 DSS and the drug sensitivity score (UT-SCC-40; [1]) was 16.3 ± 2.6 DSS. The drug sensitivity score (UT-SCC-40; [2]) was 10.8 ± 4.3 DSS, the drug sensitivity score (UT-SCC-40; [3]) was 11.7 ± 2.1 DSS and the drug sensitivity score (UT-SCC-40; [5]) was 5.87 ± 1.8 DSS. The drug sensitivity score (UT-SCC-40; [4]) was 7.63 ± 2 DSS, the drug sensitivity score (UT-SCC-42A; [1]) was 11.2 ± 1.7 DSS and the drug sensitivity score (UT-SCC-42A; [2]) was 5.2 ± 2.5 DSS. It also gave a drug sensitivity score (UT-SCC-42A; [3]) of 12.8 ± 2.1 DSS, a drug sensitivity score (UT-SCC-42A; [5]) of 5.1 ± 2.7 DSS and a drug sensitivity score (UT-SCC-42A; [4]) of 7.97 ± 0.65 DSS. For the same compound, the drug sensitivity score (UT-SCC-42B; [1]) was 16 ± 0.97 DSS, the drug sensitivity score (UT-SCC-42B; [3]) was 7.13 ± 3.2 DSS and the drug sensitivity score (UT-SCC-42B; [5]) was 1.77 ± 0.51 DSS. The drug sensitivity score (UT-SCC-42B; [4]) was 3.47 ± 0.32 DSS, the drug sensitivity score (UT-SCC-44; [1]) was 13.9 ± 2.2 DSS and the drug sensitivity score (UT-SCC-44; [2]) was 3.57 ± 1 DSS. It also gave a drug sensitivity score (UT-SCC-44; [3]) of 11.4 ± 0.57 DSS, a drug sensitivity score (UT-SCC-44; [5]) of 5.07 ± 1.4 DSS and a drug sensitivity score (UT-SCC-44; [4]) of 7.77 ± 4.3 DSS. For the same compound, the drug sensitivity score (UT-SCC-73; [1]) was 14.6 ± 0.67 DSS, the drug sensitivity score (UT-SCC-73; [2]) was 9.93 ± 3.5 DSS and the drug sensitivity score (UT-SCC-73; [3]) was 14.3 ± 0.8 DSS. For the same compound, the drug sensitivity score (UT-SCC-73; [5]) was 8.03 ± 1.4 DSS, the drug sensitivity score (UT-SCC-73; [4]) was 12 ± 1 DSS and the drug sensitivity score (UT-SCC-81; [1]) was 20.4 ± 0.21 DSS. The drug sensitivity score (UT-SCC-81; [2]) was 0.933 ± 0.55 DSS, the drug sensitivity score (UT-SCC-81; [3]) was 11 ± 1.7 DSS and the drug sensitivity score (UT-SCC-81; [5]) was 3.7 ± 1.1 DSS. The drug sensitivity score (UT-SCC-81; [4]) was 4.4 ± 0.69 DSS, the drug sensitivity score (UT-SCC-8; [1]) was 5.73 ± 4.6 DSS and the drug sensitivity score (UT-SCC-8; [2]) was 1.97 ± 3.4 DSS. It also gave a drug sensitivity score (UT-SCC-8; [3]) of 3.73 ± 2.5 DSS, a drug sensitivity score (UT-SCC-8; [5]) of 4.67 ± 4.2 DSS and a drug sensitivity score (UT-SCC-8; [4]) of 3.83 ± 3.4 DSS.
